Where a SMILES comes first, the peptide text is derived from it. [ ]: non-standard residue; d: D form. β3hL = CC(C)C[C@H](N)CC(=O)O; Nva = CCC[C@H](N)C(=O)O
Assays:
HeLa = test: cells; format: functional; details: Homo sapiens, 72 h
Description: Growth inhibition of human HeLa cells after 72 hrs by XTT assay

MCF7 = test: cells; format: functional; details: Homo sapiens, MCF7, 72 h
Description: Growth inhibition of human MCF7 cells after 72 hrs by XTT assay

HL-60 = test: cells; format: functional; details: Homo sapiens, HL-60, 72 h
Description: Growth inhibition of human HL60 cells after 72 hrs by XTT assay

in vitro = details: human, HEK293 cells
Description: Growth inhibition of human HEK293 cells after 72 hrs by XTT assay

Jurkat = test: cells; format: functional; details: Homo sapiens, 72 h
Description: Growth inhibition of human Jurkat cells after 72 hrs by XTT assay

Histone deacetylase 1 [1] = molecular target: T1, Histone deacetylase 1 (Homo sapiens, UniProt Q13547); test: Inhibition of recombinant HDAC1 using Ac-Lys(Ac)-AMC as substrate after 30 mins by fluorescence analysis
T1 sequence (Q13547 whole entry): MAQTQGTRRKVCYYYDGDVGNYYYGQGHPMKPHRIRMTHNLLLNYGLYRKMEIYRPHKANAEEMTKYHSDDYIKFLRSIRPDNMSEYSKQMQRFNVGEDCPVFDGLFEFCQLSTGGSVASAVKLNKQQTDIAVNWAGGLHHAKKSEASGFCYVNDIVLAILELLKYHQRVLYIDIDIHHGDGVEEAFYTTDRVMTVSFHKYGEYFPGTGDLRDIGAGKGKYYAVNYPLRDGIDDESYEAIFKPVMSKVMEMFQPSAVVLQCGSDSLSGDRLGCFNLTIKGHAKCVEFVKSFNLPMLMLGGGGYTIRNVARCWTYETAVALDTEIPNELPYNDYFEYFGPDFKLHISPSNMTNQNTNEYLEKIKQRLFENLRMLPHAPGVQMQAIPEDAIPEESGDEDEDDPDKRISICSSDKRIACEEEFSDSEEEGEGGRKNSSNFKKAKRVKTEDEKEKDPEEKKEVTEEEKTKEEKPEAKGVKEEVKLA

[2] = Growth inhibition of human HEK293 cells at 100 uM after 72 hrs by XTT assay; format: cell-based; details: read-out: GI
[3] = molecular target: T2, Protein deacetylase HDAC6 (Homo sapiens) (UniProt Q9UBN7); test: Inhibition of recombinant HDAC6 using Ac-Lys(Ac)-AMC as substrate at 20 uM after 30 mins by fluorescence analysis
T2 sequence (whole entry): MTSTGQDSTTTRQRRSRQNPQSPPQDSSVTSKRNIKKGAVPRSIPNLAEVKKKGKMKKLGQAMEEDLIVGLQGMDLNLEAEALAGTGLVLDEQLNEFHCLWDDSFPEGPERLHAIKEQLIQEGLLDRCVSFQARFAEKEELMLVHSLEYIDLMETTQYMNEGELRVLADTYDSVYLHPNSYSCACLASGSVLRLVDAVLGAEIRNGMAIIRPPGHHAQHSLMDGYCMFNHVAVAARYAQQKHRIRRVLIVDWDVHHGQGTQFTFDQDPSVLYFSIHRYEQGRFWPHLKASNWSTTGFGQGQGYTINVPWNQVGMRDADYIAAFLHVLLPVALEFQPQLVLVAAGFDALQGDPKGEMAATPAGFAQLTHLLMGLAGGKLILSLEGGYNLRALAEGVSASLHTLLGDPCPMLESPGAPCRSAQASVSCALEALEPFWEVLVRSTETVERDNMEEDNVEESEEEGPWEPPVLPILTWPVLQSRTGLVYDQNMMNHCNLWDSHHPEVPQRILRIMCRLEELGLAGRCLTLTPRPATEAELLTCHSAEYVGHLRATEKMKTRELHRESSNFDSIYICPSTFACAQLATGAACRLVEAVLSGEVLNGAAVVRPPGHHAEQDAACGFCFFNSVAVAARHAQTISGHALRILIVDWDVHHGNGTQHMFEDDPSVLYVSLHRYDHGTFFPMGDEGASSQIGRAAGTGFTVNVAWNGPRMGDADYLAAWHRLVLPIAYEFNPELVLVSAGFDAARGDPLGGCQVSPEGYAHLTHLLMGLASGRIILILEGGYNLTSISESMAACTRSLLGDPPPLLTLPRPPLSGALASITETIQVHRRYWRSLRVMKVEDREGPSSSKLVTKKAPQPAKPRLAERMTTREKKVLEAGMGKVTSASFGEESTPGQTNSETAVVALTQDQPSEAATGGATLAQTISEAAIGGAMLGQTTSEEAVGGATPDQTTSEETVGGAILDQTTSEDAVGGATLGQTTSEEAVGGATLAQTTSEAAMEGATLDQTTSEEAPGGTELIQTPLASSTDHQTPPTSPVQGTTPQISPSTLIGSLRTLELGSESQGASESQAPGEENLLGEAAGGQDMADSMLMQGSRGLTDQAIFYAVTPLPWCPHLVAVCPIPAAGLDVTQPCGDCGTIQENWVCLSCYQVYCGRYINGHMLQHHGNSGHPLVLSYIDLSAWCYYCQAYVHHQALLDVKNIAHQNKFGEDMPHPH

Histone deacetylase 2 [4] = molecular target: T3, Histone deacetylase 2 (Homo sapiens, UniProt Q92769); test: Inhibition of recombinant HDAC2 using Ac-Lys(Ac)-AMC as substrate after 30 mins by fluorescence analysis
T3 sequence (Q92769 whole entry): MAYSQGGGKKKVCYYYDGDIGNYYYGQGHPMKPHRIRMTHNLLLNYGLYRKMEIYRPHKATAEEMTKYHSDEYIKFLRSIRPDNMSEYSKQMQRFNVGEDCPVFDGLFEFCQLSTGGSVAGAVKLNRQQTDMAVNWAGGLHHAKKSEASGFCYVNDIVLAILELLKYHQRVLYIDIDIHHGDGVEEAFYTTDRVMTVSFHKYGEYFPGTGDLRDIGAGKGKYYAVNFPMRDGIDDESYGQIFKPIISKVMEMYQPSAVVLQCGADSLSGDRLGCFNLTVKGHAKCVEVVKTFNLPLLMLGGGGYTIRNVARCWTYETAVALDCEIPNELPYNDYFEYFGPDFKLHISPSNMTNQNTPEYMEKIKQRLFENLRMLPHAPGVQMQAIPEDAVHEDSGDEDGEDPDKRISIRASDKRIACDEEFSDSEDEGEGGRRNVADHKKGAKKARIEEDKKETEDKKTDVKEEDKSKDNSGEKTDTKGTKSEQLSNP

[5] = molecular target: T4, Histone deacetylase 3/Nuclear receptor corepressor 2 (HDAC3/NCoR2) (Homo sapiens, UniProt O15379); test: Inhibition of recombinant HDAC3/NCoR2 using Ac-Lys(Ac)-AMC as substrate after 30 mins by fluorescence analysis; format: protein-complex assay
T4 sequence (O15379 whole entry): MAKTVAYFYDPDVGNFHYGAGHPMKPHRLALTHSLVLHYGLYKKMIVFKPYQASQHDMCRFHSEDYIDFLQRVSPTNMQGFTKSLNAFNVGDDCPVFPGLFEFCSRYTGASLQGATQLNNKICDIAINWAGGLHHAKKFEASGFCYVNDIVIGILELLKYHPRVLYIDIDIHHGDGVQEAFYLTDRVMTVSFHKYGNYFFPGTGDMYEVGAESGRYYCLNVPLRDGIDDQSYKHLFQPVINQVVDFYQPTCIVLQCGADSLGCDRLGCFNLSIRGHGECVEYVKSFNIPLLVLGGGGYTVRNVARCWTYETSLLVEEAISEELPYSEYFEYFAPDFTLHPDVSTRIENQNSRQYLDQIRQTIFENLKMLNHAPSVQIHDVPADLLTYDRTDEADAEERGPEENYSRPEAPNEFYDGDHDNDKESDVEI
T4 sequence (Q9Y618 whole entry, further chain): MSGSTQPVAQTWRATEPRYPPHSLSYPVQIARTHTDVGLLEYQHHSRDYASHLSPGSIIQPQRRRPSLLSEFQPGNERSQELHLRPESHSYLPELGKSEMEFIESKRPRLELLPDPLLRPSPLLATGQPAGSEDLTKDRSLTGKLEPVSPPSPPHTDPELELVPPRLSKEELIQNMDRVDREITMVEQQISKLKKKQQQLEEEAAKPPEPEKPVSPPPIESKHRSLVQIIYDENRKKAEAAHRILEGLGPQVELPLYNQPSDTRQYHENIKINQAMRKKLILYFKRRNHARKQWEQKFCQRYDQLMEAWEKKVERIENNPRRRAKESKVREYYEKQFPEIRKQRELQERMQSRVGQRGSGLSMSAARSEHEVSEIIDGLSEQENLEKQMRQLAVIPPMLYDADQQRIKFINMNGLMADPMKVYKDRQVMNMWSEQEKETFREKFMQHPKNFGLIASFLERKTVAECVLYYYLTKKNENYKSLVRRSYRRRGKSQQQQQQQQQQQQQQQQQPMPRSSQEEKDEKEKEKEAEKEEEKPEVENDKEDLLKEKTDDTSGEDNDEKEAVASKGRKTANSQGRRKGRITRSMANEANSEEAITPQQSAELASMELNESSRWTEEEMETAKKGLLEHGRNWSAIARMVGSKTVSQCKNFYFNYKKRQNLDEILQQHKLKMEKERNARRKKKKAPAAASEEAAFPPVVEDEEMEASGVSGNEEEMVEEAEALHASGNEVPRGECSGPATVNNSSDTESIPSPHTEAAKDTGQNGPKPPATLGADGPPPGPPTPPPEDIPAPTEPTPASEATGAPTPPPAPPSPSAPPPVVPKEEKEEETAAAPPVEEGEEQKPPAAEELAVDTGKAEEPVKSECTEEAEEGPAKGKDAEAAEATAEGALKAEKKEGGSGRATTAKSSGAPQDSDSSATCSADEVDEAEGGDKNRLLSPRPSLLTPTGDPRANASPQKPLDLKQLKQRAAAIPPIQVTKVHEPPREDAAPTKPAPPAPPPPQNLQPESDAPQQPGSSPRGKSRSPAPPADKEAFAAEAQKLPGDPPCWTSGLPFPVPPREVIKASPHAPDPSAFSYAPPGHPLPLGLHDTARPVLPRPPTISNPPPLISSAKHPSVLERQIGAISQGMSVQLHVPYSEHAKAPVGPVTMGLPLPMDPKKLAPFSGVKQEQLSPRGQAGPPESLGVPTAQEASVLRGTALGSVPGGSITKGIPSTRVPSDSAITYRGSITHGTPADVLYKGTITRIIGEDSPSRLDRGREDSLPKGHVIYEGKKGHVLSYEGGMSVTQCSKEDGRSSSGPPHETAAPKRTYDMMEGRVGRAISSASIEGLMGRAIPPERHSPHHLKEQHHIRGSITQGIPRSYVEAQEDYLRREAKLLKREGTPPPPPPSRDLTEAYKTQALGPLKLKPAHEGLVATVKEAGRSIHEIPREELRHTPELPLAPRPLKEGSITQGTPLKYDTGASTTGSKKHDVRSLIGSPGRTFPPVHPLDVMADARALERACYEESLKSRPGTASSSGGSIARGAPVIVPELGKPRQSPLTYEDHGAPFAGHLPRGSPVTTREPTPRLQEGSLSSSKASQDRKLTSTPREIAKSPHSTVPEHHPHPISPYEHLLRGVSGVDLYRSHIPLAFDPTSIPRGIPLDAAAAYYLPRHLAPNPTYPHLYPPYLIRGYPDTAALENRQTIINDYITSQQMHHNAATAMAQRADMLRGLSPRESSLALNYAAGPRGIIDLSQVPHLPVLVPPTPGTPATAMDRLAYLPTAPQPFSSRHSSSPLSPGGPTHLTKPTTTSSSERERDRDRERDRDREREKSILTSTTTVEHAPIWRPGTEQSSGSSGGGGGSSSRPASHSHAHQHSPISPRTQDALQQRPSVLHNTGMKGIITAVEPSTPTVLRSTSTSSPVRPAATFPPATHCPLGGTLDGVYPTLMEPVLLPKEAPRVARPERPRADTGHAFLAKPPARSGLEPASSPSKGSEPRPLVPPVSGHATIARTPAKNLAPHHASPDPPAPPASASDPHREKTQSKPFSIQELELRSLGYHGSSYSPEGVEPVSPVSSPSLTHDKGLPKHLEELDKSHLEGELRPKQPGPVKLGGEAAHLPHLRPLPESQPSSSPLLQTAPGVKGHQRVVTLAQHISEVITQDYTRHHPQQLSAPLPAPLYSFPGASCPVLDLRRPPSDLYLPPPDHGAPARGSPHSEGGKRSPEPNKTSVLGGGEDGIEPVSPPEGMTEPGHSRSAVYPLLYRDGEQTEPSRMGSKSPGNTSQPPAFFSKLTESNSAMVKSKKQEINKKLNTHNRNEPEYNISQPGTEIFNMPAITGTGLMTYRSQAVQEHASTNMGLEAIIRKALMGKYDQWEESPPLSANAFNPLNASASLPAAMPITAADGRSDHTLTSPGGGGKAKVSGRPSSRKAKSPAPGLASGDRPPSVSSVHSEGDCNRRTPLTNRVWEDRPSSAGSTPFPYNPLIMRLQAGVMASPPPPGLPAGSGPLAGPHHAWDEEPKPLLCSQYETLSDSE

[6] = molecular target: T5, Protein deacetylase HDAC6 (Homo sapiens, UniProt Q9UBN7); test: Inhibition of recombinant HDAC6 using Ac-Lys(Ac)-AMC as substrate after 30 mins by fluorescence analysis
T5 sequence (Q9UBN7 whole entry): T2 sequence (whole entry)

Histone deacetylase 2 [7] = molecular target: T3, Histone deacetylase 2; test: Competitive inhibition of HDAC2 using Ac-Lys(Ac)-AMC as substrate by Lineweaver-Burk plot analysis
Histone deacetylase 1 [8] = molecular target: T1, Histone deacetylase 1; test: Ratio of IC50 for valproic acid to compound for recombinant HDAC1 using Ac-Lys(Ac)-AMC as substrate after 30 mins by fluorescence analysis
[9] = molecular target: Histone deacetylase (Homo sapiens) (UniProt Q13547+O15379+Q9UBN7+Q92769+Q9UQL6+Q8WUI4+Q9BY41+Q96DB2+P56524+Q9UKV0+Q969S8); test: Inhibition of HDAC in human Jurkat cells assessed as increase in acetylated histone H3 after 24 hrs by Western blot analysis; format: cell-based
Histone deacetylase 2 [10] = molecular target: T3, Histone deacetylase 2; test: Ratio of IC50 for valproic acid to compound for recombinant HDAC2 using Ac-Lys(Ac)-AMC as substrate after 30 mins by fluorescence analysis
[11] = molecular target: T4, Histone deacetylase 3/Nuclear receptor corepressor 2 (HDAC3/NCoR2); test: Competitive inhibition of HDAC3/NCoR2 using Ac-Lys(Ac)-AMC as substrate by Lineweaver-Burk plot analysis; format: protein-complex assay
[12] = molecular target: T6, Histone deacetylase 3/Nuclear receptor corepressor 2 (HDAC3/NCoR2) (Homo sapiens) (UniProt O15379+Q9Y618); test: Inhibition of recombinant HDAC3/NCoR2 at 1 uM; format: protein-complex assay
[13] = Ratio of IC50 for valproic acid to compound for recombinant using Ac-Lys(Ac)-AMC as substrate after 30 mins by fluorescence analysis; details: Homo sapiens
Histone deacetylase 1 [14] = molecular target: T1, Histone deacetylase 1; test: Competitive inhibition of HDAC1 using Ac-Lys(Ac)-AMC as substrate by Lineweaver-Burk plot analysis
[15] = molecular target: T6, Histone deacetylase 3/Nuclear receptor corepressor 2 (HDAC3/NCoR2) (Homo sapiens); test: Ratio of IC50 for valproic acid to compound for recombinant HDAC3/NCoR2 using Ac-Lys(Ac)-AMC as substrate after 30 mins by fluorescence analysis; format: protein-complex assay

GI50 (HeLa)	GI50 (MCF7)	GI50 (HL-60)	GI50 at 72 h (in vitro)	GI50 (Jurkat)	IC50 (Histone deacetylase 1 [1])	inhibition [3]	IC50 (Histone deacetylase 2 [4])	IC50 [5]	IC50 [6]	Ki (Histone deacetylase 2 [7])	Ratio IC50 (Histone deacetylase 1 [8])	inhibition [9]	Ratio IC50 (Histone deacetylase 2 [10])	Ki [11]	inhibition [12]	Ratio IC50 [13]	Ki (Histone deacetylase 1 [14])	Ratio IC50 [15]	SMILES	inhibition at 72 h, 100 µM [2]
81000 nM	40000 nM	8200 nM	> 100000 nM	12000 nM	980 nM	37%	1500 nM	1400 nM	> 20000 nM										CCC[C@@H]1NC(=O)[C@H](C)NC(=O)C[C@H](CC(C)C)NC(=O)[C@H](Cc2c[nH]c3ccccc23)NC1=O (cyclo(A[Nva]W[β3hL]))	33%
62000 nM	47000 nM	2800 nM	100000 nM	8100 nM	680 nM	46%	1400 nM	800 nM	> 20000 nM	33 nM	40	Dose-dependent effect	40	37 nM	60%	40	49 nM	200	CCC[C@@H]1NC(=O)[C@H](C)NC(=O)C[C@H](CC(C)C)NC(=O)[C@H](Cc2cn(CN(C)C)c3ccccc23)NC1=O	

SMILES	GI50 (HeLa)	GI50 (MCF7)	GI50 (HL-60)	GI50 at 72 h (in vitro)	GI50 (Jurkat)	IC50 (Histone deacetylase 1 [1])	inhibition [3]	IC50 (Histone deacetylase 2 [4])	IC50 [5]	IC50 [6]	Ki (Histone deacetylase 2 [7])	Ratio IC50 (Histone deacetylase 1 [8])	inhibition [9]	Ratio IC50 (Histone deacetylase 2 [10])	Ki [11]	inhibition [12]	Ratio IC50 [13]	Ki (Histone deacetylase 1 [14])	Ratio IC50 [15]	inhibition at 72 h, 100 µM [2]
CCC(=O)CCCCC[C@@H]1NC(=O)[C@H]2CCCCN2C(=O)[C@H]([C@@H](C)CC)NC(=O)[C@H](Cc2cn(OC)c3ccccc23)NC1=O [APICIDIN]	1400 nM	6800 nM	280 nM	11000 nM	830 nM															

— ChEMBL document CHEMBL2062402, “Discovery of HDAC Inhibitors That Lack an Active Site Zn(2+)-Binding Functional Group” (ACS Med Chem Lett, 2012)
